≈ marks a conversion by molar mass, not a printed value.
Legend:
[1] = tested on: Staphylococcus aureus 133; experiment: Minimum inhibitory concentration (MIC), liquid dilution test; type: cell-based; conditions: Isosensitest medium, 10^5 organisms per ml, 37° C., 18-24 hours, lowest concentration with no visible bacterial growth
Procedure: (§1) Determination of the Minimum Inhibitory Concentration (MIC): The MIC is determined in a liquid dilution test. Overnight cultures of the test organisms are diluted to a cell count of 10^5 organisms per ml in Isosensitest medium (Difco, Irvine, USA) and are incubated with dilutions of the test substances (1:2 dilution stages). Exceptions are the tests with S. pneumoniae […], which are conducted in BHI broth (Difco) plus 20% bovine serum, and with H. influenzae, which are conducted in BHI broth (Difco) plus 20% bovine serum, 10 μg/ml hemin and 1% Isovitale (Becton Dickinson, New Jersey, USA). The cultures are incubated at 37° C. for 18-24 hours; S. pneumoniae and H. influenzae in the presence of 8-10% CO2. The lowest concentration of each substance at which there is no longer any visible bacterial growth is defined as the MIC. The MICs in μmol/l of some compounds of the invention against a series of test organisms are listed by way of example in the table below.

[2] = tested on: Haemophilus influenzae Spain 7; experiment: as above; type: cell-based; conditions: BHI broth plus 20% bovine serum, 10 μg/ml hemin and 1% Isovitale, 37° C., 18-24 hours, 8-10% CO2, lowest concentration with no visible bacterial growth
Procedure: as §1

bacteria = conditions: described in the literature (J. Am. Chem. Soc. 1987, J. Org. Chem. 1994, J. Antibiot. 1997); cited from earlier work

Row | MIC [1] [µM] | MIC Haemophilus influenzae Spain 7 [2] [µM] | Compound | antibacterial activity (bacteria)
1 | 15.6 (≈ 7.54 µg/mL) | 7.81 | CC(C)[C@H](NC(=O)C[C@H](NC(=O)c1cccc(F)n1)c1ccccc1)C(=O)[C@@H]1C(=O)NC(=O)[C@H]1C [Example 2, 6-Fluoro-N-{(1S)-3-[((1S)-2-methyl-1-{[(3R,4S)-4-methyl-2,5-dioxo-3-pyrrolidinyl]-carbonyl}propyl)amino]-3-oxo-1-phenylpropyl}-2-pyridinecarboxamide] | 
2 | 7.81 (≈ 4.22 µg/mL) | 15.63 | CC(C)[C@H](NC(=O)C[C@H](NC(=O)c1cc(-c2ccccc2)ccn1)c1ccccc1)C(=O)[C@@H]1C(=O)NC(=O)[C@H]1C [Example 6, N-{(1S)-3-[((1S)-2-Methyl-1-{[(3R,4S)4-methyl-2,5-dioxo-3-pyrrolidinyl]-carbonyl}propyl)amino]-3-oxo-1-phenylpropyl}-4-phenyl-2-pyridinecarboxamide] | 
3 | 7.81 (≈ 3.83 µg/mL) | 62.5 | C[C@@H]1C(=O)NC(=O)[C@H]1C(=O)C(NC(=O)C[C@H](NC(=O)c1ccccn1)c1ccccc1)C1CCCC1 (stereo partly drawn) [Example 9, N-[(1S)-3-({1-Cyclopentyl-2-[(3R,4S)-4-methyl-2,5-dioxo-3-pyrrolidinyl]-2-oxoethyl}amino)-3-oxo-1-phenylpropyl]-2-pyridinecarboxamide] | 
4 | 0.98 (≈ 0.536 µg/mL) | 15.63 | C[C@@H]1C(=O)NC(=O)[C@H]1C(=O)[C@@H](NC(=O)C[C@H](NC(=O)c1cc2cc(F)ccc2[nH]1)c1ccccc1)C1CCCC1 [Example 48, N-[(1S)-3-({(1S)-1-Cyclopentyl-2-[(3R,4S)4-methyl-2,5-dioxo-3-pyrrolidinyl]-2-oxoethyl}amino)-3-oxo-1-phenylpropyl]-5-fluoro-1 H-indole-2-carboxamide] | 
5 | 0.98 (≈ 0.565 µg/mL) | 62.5 | COc1ccc(CC(=O)N[C@@H](CC(=O)N[C@H](C(=O)[C@@H]2C(=O)NC(=O)[C@H]2C)C(C)C)c2ccccc2)c(Cl)c1Cl [Example 109] | 
6 |  |  | C/C=C/C=C/C=C/C(=O)N[C@@H](CC(=O)N[C@H](C(=O)[C@@H]1C(=O)NC(=O)[C@H]1C)C(C)C)c1ccccc1 [andrimid] | having antibacterial activity
7 |  |  | C/C=C/C=C/C(=O)N[C@@H](CC(=O)N[C@H](C(=O)[C@@H]1C(=O)NC(=O)[C@H]1C)C(C)C)c1ccccc1 [moiramide B] | having antibacterial activity
8 |  |  | C/C=C/C=C/C=C/C(=O)N[C@@H](CC(=O)N[C@H](C(=O)[C@@]1(O)C(=O)NC(=O)[C@H]1C)C(C)C)c1ccccc1 [moiramide C] | inactive

Reference: US7348357B2, “Arylamides” (Bayer HealthCare AG, priority 2002, dated 2008)
